Experimental data taken from US9399646B2 (Genentech, Inc., priority 2010, dated 2016).

Legend:
MCF-7 cells = experiment: Breast cancer cell viability assay (CellTiter-Glo, 5 days); assay type: cell-based; details: 5 days' compound exposure; for IC50: Homo sapiens, MCF7, 120 h
Procedure, shortened: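 Eleven-point semilog compound series, final 0.3-0.000003 μM, added to overnight-adhered MCF-7 cells (320/well; RPMI, 10% FBS, 20 mM HEPES) for 5 days. Viability read by CellTiter-Glo luminescence, background from medium without cells subtracted, expressed relative to untreated cells.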

ER-α in MCF-7 cells = target: T1, ER-α in MCF-7 cells (Homo sapiens, UniProt P03372); experiment: Breast cancer cell ER-α in cell western assay (SP1); assay type: cell-based; set-up: endogenous in cells; host or cells: MCF-7; details: 4 or 24 hr post compound addition; for Emax: MCF7, SP1 antibody, read-out: ER-α In Cell Western Assay (SP1) Max Response; for DC50: SP1 antibody, read-out: ER-α In Cell Western Assay (SP1) IC50
T1 sequence (P03372 1-595): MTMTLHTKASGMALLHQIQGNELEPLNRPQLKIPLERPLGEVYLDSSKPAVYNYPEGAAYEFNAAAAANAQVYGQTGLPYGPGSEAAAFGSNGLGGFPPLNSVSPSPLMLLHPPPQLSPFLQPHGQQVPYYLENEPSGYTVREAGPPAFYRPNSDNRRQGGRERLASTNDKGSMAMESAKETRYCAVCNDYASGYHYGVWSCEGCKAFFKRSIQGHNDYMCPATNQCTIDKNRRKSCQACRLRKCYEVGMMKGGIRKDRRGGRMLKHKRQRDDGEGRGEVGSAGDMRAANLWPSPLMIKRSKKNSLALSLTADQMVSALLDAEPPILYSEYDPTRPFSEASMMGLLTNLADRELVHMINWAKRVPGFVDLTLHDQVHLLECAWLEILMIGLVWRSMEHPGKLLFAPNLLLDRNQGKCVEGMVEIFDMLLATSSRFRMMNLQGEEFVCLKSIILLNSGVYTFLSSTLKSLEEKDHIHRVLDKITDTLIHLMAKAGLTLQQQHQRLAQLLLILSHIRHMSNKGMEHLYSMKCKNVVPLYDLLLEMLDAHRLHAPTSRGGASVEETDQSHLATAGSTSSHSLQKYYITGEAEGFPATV
Procedure, shortened: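 Percent remaining ER: SP1 immunofluorescence normalized to DRAQ5 nuclear stain, compared with untreated controls. Treatment lasted 4 or 24 hr across 0.3–0.000003 μM final in MCF-7.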

Row | IC50 (MCF-7 cells) | Emax (ER-α in MCF-7 cells) | DC50 (ER-α in MCF-7 cells) | Compound | MCF7 Viability Assay Max Response (MCF-7 cells)
1 | ≤ 100 nM | ≥ 40% | ≤ 100 nM | CC/C(=C(/c1ccc(/C=C/c2noc(=O)[nH]2)cc1)c1ccc2[nH]ncc2c1)c1ccccc1 [Compound 435, 3-((E)-4-((E)-1-(1H-Indazol-5-yl)-2-phenylbut-1-en-1-yl)styryl)-1,2,4-oxadiazol-5(4H)-one] | ++ (++ = a single % value ≧ 40%)
2 | ≤ 100 nM | ≥ 40% | ≤ 100 nM | CC/C(=C(/c1ccc(/C=C/c2noc(=S)[nH]2)cc1)c1ccc2[nH]ncc2c1)c1ccccc1 [Compound 440, 3-((E)-4-((E)-1-(1H-Indazol-5-yl)-2-phenylbut-1-en-1-yl)styryl)-1,2,4-oxadiazole-5(4H)-thione] | + (+ = a single % value < 40%)
3 | ≤ 100 nM | ≥ 40% | ≤ 100 nM | O=C(/C=C/c1ccc(/C(=C(\c2ccccc2)C2CCC2)c2ccc3[nH]nc(F)c3c2)cc1)NCC(F)(F)F [Compound 415, (E)-3-(4-((E)-2-Cyclobutyl-1-(3-fluoro-1H-indazol-5-yl)-2-phenylvinyl)phenyl)-N-(2,2,2-trifluoroethyl)acrylamide] | ++ (++ = a single % value ≧ 40%)
4 | ≤ 100 nM | ≥ 40% | ≤ 100 nM | CC/C(=C(/c1ccc(/C=C/C(=O)O)cc1)c1ccc2[nH]ncc2c1)c1cccc(Oc2cccnc2)c1 [Compound 365, (E)-3-(4-((E)-1-(1H-Indazol-5-yl)-2-(3-(pyridin-3-yloxy)phenyl)but-1-en-1-yl)phenyl)acrylic acid] | ++ (++ = a single % value ≧ 40%)
5 | ≤ 100 nM | ≥ 40% | ≤ 100 nM | CC/C(=C(/c1ccc(/C=C/S(N)(=O)=O)cc1)c1ccc2[nH]ncc2c1)c1ccccc1 [Compound 452, (E)-2-(4-((E)-1-(1H-Indazol-5-yl)-2-phenylbut-1-en-1-yl)phenyl)ethenesulfonamide] | ++ (++ = a single % value ≧ 40%)
6 | ≤ 100 nM | ≥ 40% | ≤ 100 nM | CC/C(=C(/c1ccc(/C=C/c2nn[nH]n2)cc1)c1ccc2[nH]ncc2c1)c1ccccc1 [Compound 442, 5-((E)-1-(4-((E)-2-(2H-Tetrazol-5-yl)vinyl)phenyl)-2-phenylbut-1-en-1-yl)-1H-indazole] | ++ (++ = a single % value ≧ 40%)
7 | ≤ 100 nM | ≥ 40% | ≤ 100 nM | CNC(=O)/C=C/c1ccc(/C(=C(\c2ccccc2)C2CCC2)c2ccc3c(cnn3C)c2)cc1 [Compound 411, (E)-3-(4-((E)-2-Cyclobutyl-1-(1-methyl-1H-indazol-5-yl)-2-phenylvinyl)phenyl)-N-methylacrylamide] | ++ (++ = a single % value ≧ 40%)
8 | ≤ 100 nM | ≥ 40% | ≤ 100 nM | CC/C(=C(/c1ccc(/C=C/C(=O)N(C)OC)cc1)c1ccc2[nH]ncc2c1)c1ccc(F)cc1Cl [Compound 422, (E)-3-(4-((E)-2-(2-Chloro-4-fluorophenyl)-1-(1H-indazol-5-yl)but-1-en-1-yl)phenyl)-N-methoxy-N-methylacrylamide] | ++ (++ = a single % value ≧ 40%)
9 | ≤ 100 nM | ≥ 40% | ≤ 100 nM | CC/C(=C(/c1ccc(/C=C/C(=O)O)cc1)c1ccc2[nH]ncc2c1)c1cccc(Oc2ccccn2)c1 [Compound 362, (E)-3-(4-((E)-1-(1H-Indazol-5-yl)-2-(3-(pyridin-2-yloxy)phenyl)but-1-en-1-yl)phenyl)acrylic acid] | ++ (++ = a single % value ≧ 40%)
10 | ≤ 100 nM | ≥ 40% | ≤ 100 nM | CC/C(=C(/c1ccc(/C=C/C(=O)NS(=O)(=O)c2ccccc2)cc1)c1ccc2[nH]ncc2c1)c1ccc(F)cc1Cl [Compound 428, (E)-3-(4-((E)-2-(2-Chloro-4-fluorophenyl)-1-(1H-indazol-5-yl)but-1-en-1-yl)phenyl)-N-(phenylsulfonyl)acrylamide] | ++ (++ = a single % value ≧ 40%)

Further lines, the compound ahead of its results:

Row | Compound | IC50 (MCF-7 cells) | Emax (ER-α in MCF-7 cells) | DC50 (ER-α in MCF-7 cells) | MCF7 Viability Assay Max Response (MCF-7 cells)
11 | CC/C(=C(/c1ccc(/C=C/C(=O)O)cc1)c1ccc2[nH]ncc2c1F)c1cccc(OC2CCCCC2)c1 [Compound 345, (E)-3-(4-((E)-2-(3-(Cyclohexyloxy)phenyl)-1-(4-fluoro-1H-indazol-5-yl)but-1-en-1-yl)phenyl)acrylic acid] | ≤ 100 nM | ≥ 40% | ≤ 100 nM | ++ (++ = a single % value ≧ 40%)
12 | CC/C(=C(/c1ccc(/C=C/C(=O)O)cc1)c1ccc2[nH]ncc2c1)c1cccc(Oc2ccccc2)c1 [Compound 261, (E)-3-(4-((E)-1-(1H-Indazol-5-yl)-2-(3-phenoxyphenyl)but-1-en-1-yl)phenyl)acrylic acid] | ≤ 100 nM | ≥ 40% | ≤ 100 nM | ++ (++ = a single % value ≧ 40%)
13 | Cc1cscc1/C(CC(C)C)=C(\c1ccc(/C=C/C(=O)O)cc1)c1ccc2[nH]ncc2c1 [Compound 257, (E)-3-(4-((E)-1-(1H-Indazol-5-l)-4-methyl-2-(4-methylthiophen-3-yl)pent-1-en-1-yl)phenyl)acrylic acid] | ≤ 100 nM | ≥ 40% | ≤ 100 nM | ++ (++ = a single % value ≧ 40%)
14 | CC/C(=C(/c1ccc(/C=C/C(=O)O)cc1)c1ccn2ncnc2c1)c1ccccc1 [Compound 136, (E)-3-(4-((E)-1-([1,2,4]Triazolo[1,5-a]pyridin-7-yl)-2-phenylbut-1-en-1-yl)phenyl)acrylic acid] | > 100 nM | ≥ 40% | > 100 nM | + (+ = a single % value < 40%)
15 | CC/C(=C(/c1ccc(/C=C/C(=O)O)cc1)c1ccc2[nH]ncc2c1)c1cccc2ccccc12 [Compound 50, (E)-3-(4-((E)-1-(1H-Indazol-5-yl)-2-(naphthalen-1-yl)but-1-en-1-yl)phenyl)acrylic acid] | ≤ 100 nM | ≥ 40% | ≤ 100 nM | ++ (++ = a single % value ≧ 40%)
16 | CC/C(=C(/c1ccc(/C=C/C(=O)O)cc1)c1ccc2[nH]ncc2c1)c1cccc(OCc2cccnc2)c1 [Compound 359, (E)-3-(4-((E)-1-(1H-Indazol-5-yl)-2-(3-(pyridin-3-ylmethoxy)phenyl)but-1-en-1-yl)phenyl)acrylic acid] | ≤ 100 nM | ≥ 40% | ≤ 100 nM | ++ (++ = a single % value ≧ 40%)
17 | CC/C(=C(/c1ccc(/C=C/C(=O)O)cc1)c1ccc2[nH]ncc2c1)c1ccc(OCCO)cc1 [Compound 360, (E)-3-(4-((E)-2-(4-(2-Hydroxyethoxy)phenyl)-1-(1H-indazol-5-yl)but-1-en-1-yl)phenyl)acrylic acid] | > 100 nM | ≥ 40% | > 100 nM | ++ (++ = a single % value ≧ 40%)
18 | CC/C(=C(/c1ccc(/C=C/C(=O)O)cc1)c1ccc2[nH]ncc2c1)c1cccc(OCCCOC)c1 [Compound 342, (E)-3-(4-((E)-1-(1H-Indazol-5-yl)-2-(3-(3-methoxypropoxy)phenyl)but-1-en-1-yl)phenyl)acrylic acid] | ≤ 100 nM | ≥ 40% | ≤ 100 nM | ++ (++ = a single % value ≧ 40%)
